These results are taken from publication PMC10707468, “Pharmacokinetics of Novel Dopamine Transporter Inhibitor CE-123 and Modafinil with a Focus on Central Nervous System Distribution” (International Journal of Molecular Sciences, 2023).

This data set can be described thus: In vivo rat tissue biodistribution / neuroPK study, 4 h intravenous constant infusion. Also noted: species or system Sprague-Dawley rats. To be noted: rat; for Kp at 4 h / concentration at 4 h: Sprague-Dawley; for Kp at 4 h: brain (whole brain homogenate) relative to plasma, steady state, read-out: Total brain-to-plasma concentration ratio, Kp,brain; for concentration at 4 h: intravenous, 20 mg/kg; for order of Kp,tissue from highest to lowest: total tissue-to-plasma concentration ratio. The procedure: The results are summarized in Figure 4 and Table S2 within Supplementary Materials.
In order to minimize the usage of animals and gain high confidence in the tissue distribution, a 4 h constant intravenous infusion study was designed based on the systemic pharmacokinetic parameters determined elsewhere. The catheters were surgically implanted a day before the PK experiment. The rats (n = 3 per compound) were then individually placed into a CMA 120 system (CMA, Solna, Sweden). […] A dose of 20 mg/kg was administered as a combination of an initial short 10 min infusion as a loading dose followed by a constant infusion up to 4 h, targeting a steady-state total plasma concentration of around 1000 ng/mL for each compound (based on the pilot study results). Blood was collected into heparinized Eppendorf tubes via a femoral artery catheter at 0 (before infusion starts) 1, 2, 3, and 4 h after the infusion started and immediately centrifuged at 10,000 rpm for 5 min at +4 °C. Plasma was then collected and kept at −20 °C. At 4 h, the rats were anesthetized via inhalation of 2.5% isoflurane (Abbot Scandinavia, Solna, Sweden), balanced with 1.5 L/min oxygen, after which the terminal blood and tissue samples were collected. […] The tissue samples (brain, spinal cord, liver, and kidney) were rapidly removed, pre-weighed into a 2 mL hard tissue homogenizing tube with mini-beads, and subsequently homogenized in 2 volumes of MQ water using a 4-Place Bead Mill Homogenizer (VWR, Stockholm, Sweden) at the maximal speed for 2 min and thereafter kept at +4 °C. The plasma and tissue homogenate samples were stored at −20 °C until LC–MS analysis.
For all the rat plasma and CSF samples, an aliquot of 50 µL was spiked with 50 µL of 4% PA in water containing the IS solution to disrupt the drug–protein binding. For all rat tissue samples (brain, spinal cord, liver, and kidney), an aliquot of 50 µL was spiked with 50 µL ice-cold ACN containing the IS solution for protein precipitation. The samples were vortexed and spun down for 10 min (3000× g, 4 °C) and 25 µL of clear supernatant was diluted with 225 µL 0.1% FA in water to achieve 10% of ACN in the solution. SPE clean-up was performed using an Oasis PRiME HLB µElution 96-well plate, 3 mg (Waters Corporation, Vienna, Austria). The SPE cartridges were preconditioned and equilibrated with 1 × 200 µL ACN and 0.1% FA in water each. The samples were loaded onto the cartridges and washed with 2 × 200 µL 0.1% FA in water and 1 × 200 µL ACN/0.1% FA in water 10:90 (v:v). The analytes were eluted from the SPE cartridge into a collection plate with 2 × 25 µL ACN/0.1% FA in water 70:30 (v:v). All the samples were diluted with 50 µL of 0.1% FA in water and 10 µL of sample was injected onto the LC–HRMS system.
All samples, blanks, standards, and quality control samples in the respective matrices were analyzed on a UHPLC system (Dionex UltiMate 3000 RSLC series system, Thermo Fisher Scientific, Inc., Dreieich, Germany) coupled with a high-resolution mass spectrometer (maXis HD Q-TOF, Bruker Daltonics, Bremen, Germany) equipped with a heated electrospray ionization (ESI) source. Reversed-phase chromatographic separation was performed on a Kinetex Phenyl-Hexyl column (2.6 µm, 2.1 × 50 mm, Phenomenex, Torrance, CA, USA), equipped with a precolumn (2.6 µm, Phenomenex, Torrance, CA, USA), at a flow rate of 0.4 mL/min. Eluent A was water containing 0.1% FA and eluent B ACN. A multi-step gradient was optimized as follows: the initial mobile phase composition (5% eluent B) was held constant for 1 min, followed by a linear increase to 30% eluent B until minute 1.5, to 40% eluent B until minute 5.5, and to 95% eluent B until minute 6. After a hold time of 2 min, the column was re-equilibrated for 2.5 min at the initial conditions (5% eluent B). The column compartment and the autosampler were maintained at 40 °C and at 8 °C, respectively. […]

[1] abbreviates: 4 h iv constant infusion 20 mg/kg.
Where [2] appears, read: brain, 4 h iv constant infusion 20 mg/kg, n=3, read-out: Total concentration in brain.
Where [3] appears, read: kidney, 4 h iv constant infusion 20 mg/kg, n=3, read-out: Total concentration in kidney.
Setting [4] is: liver, 4 h iv constant infusion 20 mg/kg, n=3, read-out: Total concentration in liver.
The mark [5] stands for this setting: plasma, 4 h iv constant infusion 20 mg/kg, n=3, read-out: Total concentration in plasma.
Setting [6] is: plasma, 4 h iv constant infusion 20 mg/kg, read-out: Total drug concentration in plasma, Ctot,plasma.
Setting [7] is: plasma, 4 h iv constant infusion 20 mg/kg, read-out: Total steady-state plasma concentration, Cplasma,ss.
[8] abbreviates: plasma, mean, in vivo study, 4 h iv infusion 20 mg/kg, read-out: Unbound-drug concentration in plasma, Cu,plasma.
[9] abbreviates: spinal cord, 4 h iv constant infusion 20 mg/kg, n=3, read-out: Total concentration in spinal cord.

Where “and” joins values, the source holds several entries; their conditions need not be identical. Equal entries are not always repeated. Where two headings read alike, the source gives them in different places.

With `NC(=O)C[S@@+]([O-])C(c1ccccc1)c1ccccc1` [R-modafinil, reference compound], the “order of Kp,tissue from highest to lowest” value was “kidneys > liver > spinal cord > brain”. For the same molecule, the Kp at 4 h under setting [1] was 0.29 ± 0.013. The concentration at 4 h (CSF, cisterna magna, 4 h iv infusion 20 mg/kg, single rats, read-out: Total concentration in CSF) worked out at 784 ng/mL. In addition, the concentration at 4 h under setting [2] was determined as 448 ng/g. The concentration at 4 h (brain, single sample, rat brain after 4 h iv infusion 20 mg/kg, read-out: concentration in rat brain sample (Figure S4 chromatogram)) is 471 ng/mL. Also, the concentration at 4 h under setting [3] was 2540 ng/g. Moreover, the concentration at 4 h under setting [4] came to 2170 ng/g. Further, the concentration at 4 h under setting [5] was determined as 1010 ng/mL. Moreover, the concentration at 4 h under setting [6] was 3.69 µM. In addition, the concentration at 4 h under setting [7] was determined as 5.57 ± 0.649 µM. Besides, under setting [8], the concentration at 4 h is 2.91 µM. Under setting [9], the concentration at 4 h came out at 733 ng/g.

Consider `[O-][S@@+](Cc1cncs1)C(c1ccccc1)c1ccccc1` [S-CE-123], for which the “order of Kp,tissue from highest to lowest” value was “liver > kidneys > spinal cord > brain”. Further, the Kp at 4 h under setting [1] was found to be 0.61 ± 0.1. Also, under setting [2], the concentration at 4 h is 820 ng/g. In addition, the concentration at 4 h under setting [3] turned out to be 1780 ng/g. Further, the concentration at 4 h under setting [4] turned out to be 2730 ng/g. Also, the concentration at 4 h under setting [5] was found to be 1050 ng/mL. Besides, the concentration at 4 h under setting [6] turned out to be 3.35 µM. Under setting [7], the concentration at 4 h is 4.15 ± 2.2 µM. The concentration at 4 h under setting [8] came out at 0.839 µM. Besides, the concentration at 4 h under setting [9] came out at 1240 ng/g. The “Total concentration in CSF” value (cisterna magna, 4 h iv infusion 20 mg/kg, single rats) is 570 ng/mL and 104 ng/mL.
